Reference: patent publication US20210299038A1, “METHOD TO PREVENT AND TREAT OCULAR CATARACT BY CALCIUM CHANNEL BLOCKERS, ANGIOTENSIN CONVERTING ENZYME INHIBITORS, AND ANGIOTENSIN RECEPTOR BLOCKERS” (priority 2018, published 2021)

Legend:
ocular cataract [1] = test: Treatment of a patient diagnosed with ocular cataract, one eye treated, other eye untreated; format: in vivo, human
Text: A patient is diagnosed with ocular cataract. A composition comprising the calcium channel blocker nifedipine is directly applied to the vitreous surface of one eye while the other eye is left untreated. […] A patient is diagnosed with ocular cataract. A composition comprising the ACE inhibitor enalapril is directly applied to the vitreous surface of one eye while the other eye is left untreated. […] A patient is diagnosed with ocular cataract. A composition comprising the angiotensin receptor blocker losartan is directly applied to the vitreous surface of one eye while the other eye is left untreated. […] A patient is diagnosed with ocular cataract. A composition comprising the calcium channel blocker nifedipine is applied to the eye by intravitreal or intraocular injection while the other eye is left untreated. […] A patient is diagnosed with ocular cataract. A composition comprising the ACE inhibitor enalapril is applied to the eye by intravitreal or intraocular injection while the other eye is left untreated. […] A patient is diagnosed with ocular cataract. A composition comprising the angiotensin receptor blocker losartan is applied to the eye by intravitreal or intraocular injection while the other eye is left untreated.

ocular cataract [2] = test: Prevention of recurrence of ocular cataract in a successfully treated patient, one eye treated, other eye untreated; format: in vivo, human; conditions: untreated eye shows recurrence
Text: A composition comprising the calcium channel blocker nifedipine is directly applied to the vitreous surface of one eye while the other eye is left untreated. […] A composition comprising the ACE inhibitor enalapril is directly applied to the vitreous surface of one eye while the other eye is left untreated. […] A composition comprising the angiotensin receptor blocker losartan is directly applied to the vitreous surface of one eye while the other eye is left untreated. […] A composition comprising the calcium channel blocker nifedipine is applied to the eye by intravitreal or intraocular injection while the other eye is left untreated. […] A composition comprising the ACE inhibitor enalapril is applied to the eye by intravitreal or intraocular injection while the other eye is left untreated. […] A composition comprising the angiotensin receptor blocker losartan is applied to the eye by intravitreal or intraocular injection while the other eye is left untreated.

cataract opacities = conditions: 3119 participants aged 55 to 80; after 10 years of supplementation; cited from earlier work
[3] = composition applied by intravitreal or intraocular injection
[4] = composition directly applied to the vitreous surface of one eye

SMILES: CCCCc1nc(Cl)c(CO)n1Cc1ccc(-c2ccccc2-c2nn[nH]n2)cc1 [losartan]
- symptoms of ocular cataract in treated eye versus untreated eye (ocular cataract [1]; [3]): reduced symptoms of ocular cataract
- symptoms of ocular cataract in treated eye versus untreated eye (ocular cataract [1]; [4]): reduced symptoms of ocular cataract
- development (recurrence) of ocular cataract in treated eye (ocular cataract [2]; [3]): not develop ocular cataract
- development (recurrence) of ocular cataract in treated eye (ocular cataract [2]; [4]): not develop ocular cataract

SMILES: CC1=C(/C=C/C(C)=C/C=C/C(C)=C/C=C/C=C(C)/C=C/C=C(C)/C=C/C2=C(C)C[C@@H](O)CC2(C)C)C(C)(C)C[C@H](O)C1 [zeaxanthin]
- nuclear cataract score opacities (cataract opacities): No reduction

SMILES: CC1=C[C@H](O)CC(C)(C)[C@H]1/C=C/C(C)=C/C=C/C(C)=C/C=C/C=C(C)/C=C/C=C(C)/C=C/C1=C(C)C[C@@H](O)CC1(C)C [lutein]
- nuclear cataract score opacities (cataract opacities): No reduction

SMILES: CCOC(=O)[C@H](CCc1ccccc1)N[C@@H](C)C(=O)N1CCC[C@H]1C(=O)O [enalapril]
- symptoms of ocular cataract in treated eye versus untreated eye (ocular cataract [1]; [3]): reduced symptoms of ocular cataract
- symptoms of ocular cataract in treated eye versus untreated eye (ocular cataract [1]; [4]): reduced symptoms of ocular cataract
- development (recurrence) of ocular cataract in treated eye (ocular cataract [2]; [3]): not develop ocular cataract
- development (recurrence) of ocular cataract in treated eye (ocular cataract [2]; [4]): not develop ocular cataract
